Experimental findings from patent publication US5336673A, “3-substituted cephem compounds” (priority 1990, dated 1994) are described below.

Holding throughout (assay type): cell-based
Assay [1] has as its system Streptococcus pyogenes A 77. As to the kind of experiment: Antibacterial activity, MIC by Agar dilution method, standard test strain 2. The following applies: A77, 10^7 CFU/ml, 37° C., 18 hours. Here is the method:
(§1) The antibacterial activity was determined by an Agar dilution method as described below.
(§2) That is, the two-fold serial dilutions of the antibacterial compounds (1000 μg compound/ml) were prepared and dispersed in Muller Hinton Agar in a petri dish to a concentration of 100~0.002 μg/ml. The culture broths of standard test strains were inoculated on the medium to a concentration 10^7 CFU/ml, and incubated at 37° C. for 18 hours. The concentration of compounds(I) at which the strains were not grown was regarded as minimum inhibition concentration (MIC).
(§3) The results of antibacterial activity test of the representative examples of the compound (I) against 20 standard test strains shown in terms of MIC were indicated in Table 1.
2. Streptococcus pyogenes A 77
A general note: Agar dilution tests growth on a series of plates holding different concentrations.

In assay [2] the test system is Pseudomonas aeruginosa 1771. As to the kind of experiment: Antibacterial activity, MIC by Agar dilution method, standard test strain 14. The following applies: 10^7 CFU/ml, 37° C., 18 hours. The protocol: as §1, §2, §3
14. Pseudomonas aeruginosa 1771

The subject of assay [3] is Streptococcus pyogenes A 308. As to the kind of experiment: Antibacterial activity, MIC by Agar dilution method, standard test strain 1. The following applies: A308, 10^7 CFU/ml, 37° C., 18 hours. The protocol:
as §1, §2, §3
1. Streptococcus pyogenes A 308

Assay [4] relates to Streptococcus faecium MD 86. The assay is described as follows: Antibacterial activity, MIC by Agar dilution method, standard test strain 3. The conditions noted are these: Enterococcus faecium, MD86, 10^7 CFU/ml, 37° C., 18 hours. Here is the method:
as §1, §2, §3
3. Streptococcus faecium MD 86

The test system of assay [5] is Klebsiella aerogenes 1522E. The assay is described as follows: Antibacterial activity, MIC by Agar dilution method, standard test strain 18. The following applies: Klebsiella aerogenes 1522E; 10^7 CFU/ml, 37° C., 18 hours; read-out: MIC. The protocol:
as §1, §2, §3
18. Klebsiella aerogenes 1522E

In a further assay the test system is Salmonella typhimurium. The assay is described as follows: Antibacterial activity, MIC by Agar dilution method, standard test strain 16. The following applies: Salmonella enterica, 10^7 CFU/ml, 37° C., 18 hours. The protocol:
as §1, §2, §3
16. Salmonella typhimurium

The test system of assay [6] is Pseudomonas aeruginosa 9027. As to the kind of experiment: Antibacterial activity, MIC by Agar dilution method, standard test strain 12. The following applies: 10^7 CFU/ml, 37° C., 18 hours. Here is the method: as §1, §2, §3
12. Pseudomonas aeruginosa 9027

Assay [7] relates to Enterobacter cloacae 1321E. As to the kind of experiment: Antibacterial activity, MIC by Agar dilution method, standard test strain 20. The following applies: Enterobacter cloacae 1321E; 10^7 CFU/ml, 37° C., 18 hours; read-out: MIC. The protocol: as §1, §2, §3
20. Enterobacter cloacae 1321E

For a further assay, the system named is Escherichia coli DC 2. As to the kind of experiment: Antibacterial activity, MIC by Agar dilution method, standard test strain 9. The following applies: DC2; Escherichia coli DC 2; 10^7 CFU/ml, 37° C., 18 hours; read-out: MIC. Here is the method:
as §1, §2, §3

Assay [8] concerns Staphylococcus aureus 503. The assay is described as follows: Antibacterial activity, MIC by Agar dilution method, standard test strain 6. The following applies: 10^7 CFU/ml, 37° C., 18 hours. The protocol: as §1, §2, §3
6. Staphylococcus aureus 503

In a further assay the test system is Staphyloccus aureus 285. The assay is described as follows: Antibacterial activity, MIC by Agar dilution method, standard test strain 5. The conditions noted are these: 10^7 CFU/ml, 37° C., 18 hours. Here is the method:
as §1, §2, §3
5. Staphyloccus aureus 285

A further assay relates to Enterobacter cloacae P99. As to the kind of experiment: Antibacterial activity, MIC by Agar dilution method, standard test strain 19. The conditions noted are these: P99, 18 h. Here is the method:
as §1, §2, §3
19. Enterobacter cloacae P99

The subject of assay [9] is Staphylococcus aureus SG 511. The assay is described as follows: Antibacterial activity, MIC by Agar dilution method, standard test strain 4. The following applies: SG511, 10^7 CFU/ml, 37° C., 18 hours. Here is the method:
as §1, §2, §3
4. Staphylococcus aureus SG 511

The test system of assay [10] is Pseudomonas aeruginosa 1592E. As to the kind of experiment: Antibacterial activity, MIC by Agar dilution method, standard test strain 13. The conditions noted are these: 10^7 CFU/ml, 37° C., 18 hours. The protocol:
as §1, §2, §3
13. Pseudomonas aeruginosa 1592E

Assay [11] relates to Gram-positive strains as well as Gram-negative strains including Pseudomonas. As to the kind of experiment: Antibacterial activity (summary in words). The conditions noted are these: Gram-positive and Gram-negative strains. The protocol:
as §1, §2

The test system of assay [12] is Pseudomonas aeruginosa 1771M. The assay is described as follows: Antibacterial activity, MIC by Agar dilution method, standard test strain 15. The conditions noted are these: 18 h. The protocol: as §1, §2, §3
15. Pseudomonas aeruginosa 1771M

Another assay relates to Klebsiella oxytoca 1082E. The assay is described as follows: Antibacterial activity, MIC by Agar dilution method, standard test strain 17. The following applies: 10^7 CFU/ml, 37° C., 18 hours. Here is the method:
as §1, §2, §3

Another assay concerns Escherichia coli O 55. The assay is described as follows: Antibacterial activity, MIC by Agar dilution method, standard test strain 7. Here is the method: as §1, §2, §3
For another assay, the system named is Escherichia coli DC O. The assay is described as follows: Antibacterial activity, MIC by Agar dilution method, standard test strain 8. The conditions noted are these: Escherichia coli DC O; 10^7 CFU/ml, 37° C., 18 hours; read-out: MIC. The protocol: as §1, §2, §3
In a further assay the test system is Escherichia coli 1507E. As to the kind of experiment: Antibacterial activity, MIC by Agar dilution method, standard test strain 11. The conditions noted are these: Escherichia coli 1507E; 10^7 CFU/ml, 37° C., 18 hours; read-out: MIC. The protocol: as §1, §2, §3
A further assay relates to Escherichia coli TEM. As to the kind of experiment: Antibacterial activity, MIC by Agar dilution method, standard test strain 10. The following applies: Escherichia coli TEM; 10^7 CFU/ml, 37° C., 18 hours; read-out: MIC. Here is the method:
as §1, §2, §3

A word on the MIC: it is the least concentration at which growth counts as inhibited.

Values after ≈ are worked out from the molar mass of the structure shown. Read-outs that look alike come from different tables or passages of the source.

On to `CO/N=C(\C(=O)N[C@@H]1C(=O)N2C(C(=O)[O-])=C(C[N+]3(N)CCCC3)CS[C@H]12)c1csc(N)n1` [Example 1, (6R,7R)-7-[(Z)-2-(2-aminothiazol-4-yl)-2-methoxyiminoacetamido]-3-(1-aminopyrrolidiniummethyl)ceph-3-em-4-carboxylate], for which the MIC in [1] is 0.025 µg/mL (≈ 0.0519 µM); in [2], 50 µg/mL (≈ 104 µM); in assay [3], 0.025 µg/mL (≈ 0.0519 µM); in assay [4], greater than 100 µg/mL; in assay [5], 0.195 µg/mL (≈ 0.405 µM); against Salmonella typhimurium, 0.781 µg/mL (≈ 1.62 µM). The MIC in [6] was 100 µg/mL (≈ 208 µM); in assay [7] it was 0.098 µg/mL (≈ 0.204 µM); with Escherichia coli DC 2, 0.391 µg/mL (≈ 0.812 µM); in assay [8], 1.56 µg/mL (≈ 3.25 µM); against Staphyloccus aureus 285, 12.5 µg/mL (≈ 26 µM); with Enterobacter cloacae P99, greater than 100 µg/mL. Also, the MIC in [9] worked out at 6.26 µg/mL (≈ 13 µM); in assay [10], 100 µg/mL (≈ 208 µM); in assay [12], 3.12 µg/mL (≈ 6.49 µM); against Klebsiella oxytoca 1082E, 12.5 µg/mL (≈ 26 µM); in the assay with Escherichia coli O 55 (Escherichia coli, O55, 18 h) it was 0.195 µg/mL (≈ 0.405 µM); in the assay with Escherichia coli DC O it was 0.195 µg/mL (≈ 0.405 µM). The minimum inhibitory concentration (MIC) in the assay with Escherichia coli 1507E and with Escherichia coli TEM was 0.391 µg/mL (≈ 0.812 µM) each time. In addition, the “antibacterial activity (in words)” value in [11] is “excellent antibacterial activity”.
Regarding `CO/N=C(\C(=O)N[C@@H]1C(=O)N2C(C(=O)[O-])=C(C[N+]3(N)CCc4ccccc4C3)CS[C@H]12)c1csc(N)n1` (stereo partly drawn) [Example 5, (6R,7R)-7-[(Z)-2-(2-aminothiazol-4-yl)-2-methoxyiminoacetamido]-3-[(2-amino-1,2,3,4-tetrahydroisoquinolin-2-ium)methyl]-ceph-3-em-4-carboxylate], the MIC in assay [1] turned out to be 0.013 µg/mL (≈ 0.0239 µM); in assay [2] it was 50 µg/mL (≈ 92 µM); in assay [3], 0.049 µg/mL (≈ 0.0901 µM); in assay [4] it was 50 µg/mL (≈ 92 µM); in assay [5], 0.013 µg/mL (≈ 0.0239 µM); in the assay with Salmonella typhimurium, 0.781 µg/mL (≈ 1.44 µM). The MIC worked out at 50 µg/mL (≈ 92 µM) in [6]; 0.013 µg/mL (≈ 0.0239 µM) in assay [7]; 0.781 µg/mL (≈ 1.44 µM) in the assay with Escherichia coli DC 2; 0.781 µg/mL (≈ 1.44 µM) in assay [8]; 6.25 µg/mL (≈ 11.5 µM) in the assay on Staphyloccus aureus 285; 100 µg/mL (≈ 184 µM) against Enterobacter cloacae P99. Besides, the MIC is 1.56 µg/mL (≈ 2.88 µM) in assay [9]; 50 µg/mL (≈ 92 µM) in assay [10]; 1.56 µg/mL (≈ 2.88 µM) in assay [12]; 12.5 µg/mL (≈ 23 µM) against Klebsiella oxytoca 1082E; 0.391 µg/mL (≈ 0.719 µM) against Escherichia coli O 55 (Escherichia coli, O55, 18 h); 0.391 µg/mL (≈ 0.719 µM) in the assay on Escherichia coli DC O. Also, the MIC with Escherichia coli 1507E and in the assay with Escherichia coli TEM was 0.781 µg/mL (≈ 1.44 µM) each time. The “antibacterial activity (in words)” value in assay [11] was “excellent antibacterial activity”.
Regarding `CO/N=C(\C(=O)N[C@@H]1C(=O)N2C(C(=O)[O-])=C(C[n+]3nn(N)c4ccccc43)CS[C@H]12)c1nsc(N)n1` [Example 85, (6R,7R)-7-[(Z)-2-(5-amino-1,2,4-thiadiazol-3-yl)-2-methoxyiminoacetamido]-3-[(1-aminobenzotriazol-3-ium)methyl]-ceph-3-em-4-carboxylate], the MIC in assay [1] worked out at 0.004 µg/mL (≈ 0.00754 µM); in assay [2] it was 1.56 µg/mL (≈ 2.95 µM); in assay [3], 0.007 µg/mL (≈ 0.0132 µM); in assay [4] it was 100 µg/mL (≈ 188 µM); in assay [5], 0.049 µg/mL (≈ 0.0924 µM); against Salmonella typhimurium it was 0.195 µg/mL (≈ 0.368 µM). Also, the MIC came out at 3.12 µg/mL (≈ 5.89 µM) in [6]; 0.007 µg/mL (≈ 0.0132 µM) in assay [7]; 0.025 µg/mL (≈ 0.0471 µM) in the assay on Escherichia coli DC 2; 0.391 µg/mL (≈ 0.737 µM) in [8]; 1.56 µg/mL (≈ 2.95 µM) with Staphyloccus aureus 285; 25 µg/mL (≈ 47.1 µM) against Enterobacter cloacae P99. Besides, the MIC in assay [9] is 0.391 µg/mL (≈ 0.737 µM); in [10] it was 3.12 µg/mL (≈ 5.89 µM); in [12] it was 1.56 µg/mL (≈ 2.95 µM); against Klebsiella oxytoca 1082E it was 0.781 µg/mL (≈ 1.47 µM); in the assay on Escherichia coli O 55 (O55, Escherichia coli O 55, 10^7 CFU/ml, 37° C., 18 hours, read-out: MIC) it was 0.007 µg/mL (≈ 0.0132 µM); in the assay with Escherichia coli DC O it was 0.025 µg/mL (≈ 0.0471 µM). For the same compound, the MIC worked out at 0.049 µg/mL (≈ 0.0924 µM) in the assay with Escherichia coli 1507E and 0.025 µg/mL (≈ 0.0471 µM) in the assay on Escherichia coli TEM.
